Results taken from ChEMBL document CHEMBL5154925, “Design and Optimization of Thienopyrimidine Derivatives as Potent and Selective PI3Kδ Inhibitors for the Treatment of B-Cell Malignancies” (J Med Chem, 2022).

Experiments:
[1] = molecular target: T1, Phosphatidylinositol 4,5-bisphosphate 3-kinase catalytic subunit delta isoform (Homo sapiens, UniProt O00329); assay: Inhibition of PI3Kdelta (unknown origin) using PIP2 as substrate measured after 1 hr in presence of ATP by ADP-glo luminescence assay
T1 sequence (O00329 whole entry): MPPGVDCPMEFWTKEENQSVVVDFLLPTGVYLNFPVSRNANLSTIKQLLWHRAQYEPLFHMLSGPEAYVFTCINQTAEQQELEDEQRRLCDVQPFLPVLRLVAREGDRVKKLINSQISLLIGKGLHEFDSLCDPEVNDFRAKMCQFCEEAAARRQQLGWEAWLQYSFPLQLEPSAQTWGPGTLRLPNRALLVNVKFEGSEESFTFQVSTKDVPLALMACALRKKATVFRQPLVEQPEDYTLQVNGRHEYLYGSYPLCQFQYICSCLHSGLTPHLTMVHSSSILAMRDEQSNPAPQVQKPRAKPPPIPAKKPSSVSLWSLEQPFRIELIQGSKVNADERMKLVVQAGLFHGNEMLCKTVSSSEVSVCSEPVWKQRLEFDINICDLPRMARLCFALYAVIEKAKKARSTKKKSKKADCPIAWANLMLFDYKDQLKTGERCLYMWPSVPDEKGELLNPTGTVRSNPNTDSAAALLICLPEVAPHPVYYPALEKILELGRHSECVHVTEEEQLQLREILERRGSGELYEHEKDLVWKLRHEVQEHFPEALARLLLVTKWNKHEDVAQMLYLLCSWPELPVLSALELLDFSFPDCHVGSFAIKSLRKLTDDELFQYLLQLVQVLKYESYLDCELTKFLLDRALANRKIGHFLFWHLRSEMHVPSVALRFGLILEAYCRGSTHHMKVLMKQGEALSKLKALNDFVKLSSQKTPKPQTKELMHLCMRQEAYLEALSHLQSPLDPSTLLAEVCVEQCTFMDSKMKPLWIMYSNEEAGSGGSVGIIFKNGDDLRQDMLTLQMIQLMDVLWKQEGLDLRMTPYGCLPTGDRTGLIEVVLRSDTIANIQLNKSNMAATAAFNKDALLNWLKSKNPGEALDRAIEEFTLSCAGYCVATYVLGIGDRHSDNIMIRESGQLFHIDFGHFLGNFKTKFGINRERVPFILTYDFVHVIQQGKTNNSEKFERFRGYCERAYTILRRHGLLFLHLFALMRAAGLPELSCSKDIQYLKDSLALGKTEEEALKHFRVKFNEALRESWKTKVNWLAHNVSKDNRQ

[2] = molecular target: Phosphatidylinositol 4,5-bisphosphate 3-kinase catalytic subunit alpha isoform (Homo sapiens, UniProt P42336); assay: Inhibition of PI3Kalpha (unknown origin) using PIP2 as substrate measured after 1 hr in presence of ATP by ADP-glo luminescence assay
Sequence of Phosphatidylinositol 4,5-bisphosphate 3-kinase catalytic subunit alpha isoform (P42336 whole entry, canonical isoform): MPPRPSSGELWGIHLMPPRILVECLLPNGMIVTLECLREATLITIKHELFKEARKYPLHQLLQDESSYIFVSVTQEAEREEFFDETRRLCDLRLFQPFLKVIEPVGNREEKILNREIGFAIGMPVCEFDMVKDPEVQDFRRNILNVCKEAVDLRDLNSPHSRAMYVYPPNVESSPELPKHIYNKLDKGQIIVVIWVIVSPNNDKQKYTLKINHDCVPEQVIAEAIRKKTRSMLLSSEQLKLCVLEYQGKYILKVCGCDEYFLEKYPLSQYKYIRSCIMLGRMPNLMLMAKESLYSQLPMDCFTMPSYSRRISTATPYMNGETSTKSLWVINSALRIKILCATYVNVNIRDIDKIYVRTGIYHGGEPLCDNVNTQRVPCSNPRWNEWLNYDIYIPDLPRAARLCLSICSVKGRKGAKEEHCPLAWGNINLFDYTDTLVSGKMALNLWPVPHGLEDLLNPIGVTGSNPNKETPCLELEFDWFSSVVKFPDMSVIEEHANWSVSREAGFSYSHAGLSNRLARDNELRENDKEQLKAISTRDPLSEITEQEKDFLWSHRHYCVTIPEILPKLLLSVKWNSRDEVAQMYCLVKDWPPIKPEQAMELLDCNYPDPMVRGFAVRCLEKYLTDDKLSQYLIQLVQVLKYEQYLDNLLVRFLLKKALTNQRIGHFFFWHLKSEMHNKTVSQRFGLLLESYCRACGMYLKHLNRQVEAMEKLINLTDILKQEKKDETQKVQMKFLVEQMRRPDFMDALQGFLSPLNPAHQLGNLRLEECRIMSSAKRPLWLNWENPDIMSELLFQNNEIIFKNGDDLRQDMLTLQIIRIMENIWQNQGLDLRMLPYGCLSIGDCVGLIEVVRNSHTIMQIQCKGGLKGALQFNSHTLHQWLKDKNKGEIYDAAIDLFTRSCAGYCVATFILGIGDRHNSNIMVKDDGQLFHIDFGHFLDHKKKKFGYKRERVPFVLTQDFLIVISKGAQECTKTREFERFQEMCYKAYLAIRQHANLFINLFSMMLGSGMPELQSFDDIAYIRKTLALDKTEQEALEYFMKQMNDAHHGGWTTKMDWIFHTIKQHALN

Row | IC50 [1] | IC50 [2] | Compound
1 | 4.7 nM | 154 nM | COc1cc(-c2cc3c(N[C@H]4CCN(C(=O)C5CC5)C4)ncnc3s2)cnc1OC
2 | 458 nM | > 1000 nM | CCC(=O)N1CC[C@H](Nc2ncnc3sc(-c4ccc(C#N)nc4)cc23)C1
3 | 128 nM | 3070 nM | CCC(=O)N1CC[C@H](Nc2ncnc3sc(-c4cccc(S(C)(=O)=O)c4)cc23)C1
4 | 97.5 nM | 7860 nM | CCC(=O)N1CC[C@H](Oc2ncnc3sc(-c4cnc(OC)c(F)c4)cc23)C1
5 | 55 nM | 241 nM | COc1cc(-c2cc3c(N[C@H]4CCN(C(=O)C(C)C)C4)ncnc3s2)cnc1OC
6 | 53 nM | 793 nM | COc1cc(-c2cc3c(N[C@H]4CCN(C(=O)C(C)(C)C)C4)ncnc3s2)cnc1OC
7 | 465 nM | > 10000 nM | CCC(=O)N1CC[C@H](Nc2ncnc3sc(-c4ccc(S(C)(=O)=O)cc4)cc23)C1
8 | 269 nM | > 10000 nM | CCC(=O)N1CC[C@H](Oc2ncnc3sc(-c4cnc(OC)c(C(F)(F)F)c4)cc23)C1
9 | 26 nM | 395 nM | COc1cc(-c2cc3c(N[C@H]4CCN(C(=O)c5ccccc5)C4)ncnc3s2)cnc1OC
10 | 38 nM | 1210 nM | CCC(=O)N1CC[C@H](Nc2ncnc3sc(-c4cncc(S(C)(=O)=O)c4)cc23)C1
11 | 37 nM | 2580 nM | CCC(=O)N1CC[C@H](Nc2ncnc3sc(-c4cnc(OC)nc4)cc23)C1
12 | 136 nM | 2900 nM | CCC(=O)N1CC[C@H](Nc2ncnc3sc(-c4ccc(OC)nc4)cc23)C1
13 | 182 nM | 5640 nM | CCC(=O)N1CC[C@H](Nc2ncnc3sc(-c4ccc(OC)c(F)c4)cc23)C1
14 | 12 nM | 363 nM | CCCC(=O)N1CC[C@H](Nc2ncnc3sc(-c4cnc(OC)c(OC)c4)cc23)C1
15 | 11 nM | 428 nM | CCC(=O)N1CC[C@H](Oc2ncnc3sc(-c4cnc(OC)c(OC)c4)cc23)C1
